This is an account of results in patent US20230125482A1, “PROTEIN KINASE C MODULATORS” (Young Therapeutics, LLC, priority 2020, published 2023).

Where a SMILES comes first, the peptide text is derived from it. Where no end group is shown, it is not given here. The star is where a group is joined. Myristoyl = CCCCCCCCCCCCCC(=O)*

One series concerns isolated rat hearts. In words: Myocardial ischemia/reperfusion (I/R) injury in isolated rat hearts (Langendorff, ex vivo). Conditions: for Final Coronary Flow / Final Heart Rate / Final LVDP / Final LVEDP / Final LVESP / Final dP/dtmax / Final dP/dtmin: 50 min post-reperfusion; for Initial Coronary Flow / Initial Heart Rate / Initial LVDP / Initial LVEDP / Initial LVESP / Initial dP/dtmax / Initial dP/dtmin: baseline before ischemia.

A further series can be described thus: Solubility of peptide. The series is classed as physicochemical.
Series [1] relates to rat polymorphonuclear leukocytes (PMNs). In words: PMA-stimulated superoxide release in rat polymorphonuclear leukocytes (ferricytochrome c reduction, 550 nm). The series is classed as cell-based. Particulars: for reduction of PMA (100 nM) induced leukocyte superoxide release: vs untreated PMA controls. Here is the method: Change in absorbance at 550 nm via ferricytochrome c reduction by superoxide after stimulation with 100 nM phorbol 12-myristate 13-acetate (PMA) from time 0 to 390 sec was monitored in rat polymorphonuclear leukocytes (PMNs) (5×10^6) incubated for 15 min at 37° C. in the presence/absence of unconjugated PKCβII activator (PKCβII+) (SVEIWD (SEQ ID NO: 23)) or inhibitor (PKCβII−) (SLNPEWNET(SEQ ID NO: 5)), Myr−PKCβII+/−, Myr−PKCβII− scram (Myr-WNPESLNTE (Myristoylated SEQ ID NO: 17), Myr−TAT−PKC|II− (Myristoylated SEQ ID NO: 15) (all 20 μM) or superoxide dismutase (SOD; 10 μg/mL) (FIG. 7). Stock concentrations of compounds were dissolved in DMSO to yield a final concentration not greater that 0.2%. #: p<0.05 vs PMA, Native PKC βII+, Myr−PKC βII+ and Myr−TAT−PKC βII−; **: p<0.01 vs. all groups except Myr−TAT−PKC βII− or SOD; ++: p<0.01 vs. all groups. ANOVA post-hoc analysis was conducted using Bonferroni-Dunn.
The time course of changes in absorbance are summarized in FIGS. 8 (concentration response of Myr+TAT PKCβII−) and 9 (comparison of Myr+TAT+PKCβII− and Myr−PKCβII−, Myr−PKCβII− scrambled, and PKCβII− analogues and PMA controls). The peak response was reached by 300 seconds and maintained a plateau to 390 seconds, Myr+TAT+PKCβII− (20 μM; n=5) reduced phorbol 12-myristate 13-acetate (PMA, 100 nM) induced leukocyte superoxide release by 80%—a degree that was greater than all other study groups (p<0.01). In contrast, the Myr+PKCβII− (20 μM; n=27) reduced leukocyte superoxide release by only 30% (20 μM; n=27), again supporting the concept that the dual Myr−TAT conjugation produced greater results and reduced leukocyte superoxide release by ˜80% and ˜65% as compared to untreated PMA controls (n=74) and Myr+PKCβII− (20 μM; n=27), respectively.

[2] abbreviates: 10 μM, I(30 min)/R(50 min), infarct tissue weight/total tissue weight.
[3] abbreviates: ex vivo rat I/R hearts, FIG. 4, concentration not given.

Experimental for isolated rat hearts: Rat hearts were isolated from anesthetized male Sprague Dawley rats (275-325 g), placed in ice-cold Krebs' buffer, and placed onto a Langendorff heart apparatus and retro perfused with Krebs' buffer at a constant pressure of 80 mmHg (FIG. 1). A pressure transducer measures heart rate, left ventricular end-systolic pressure, end-diastolic pressure, dP/dt max, and dP/dt min. Coronary flow is measured via a flow probe connected to the perfusion tubing. Cardiac function was recorded throughout the experimental protocol using a pressure transducer inserted into the left ventricle (15 min baseline; global I(30 min)/R(50 min)). Selected peptides of TABLE 1 or vehicle (control [0.05 to 0.2% Dimethylsulfoxide) were given during the first 5 min of reperfusion. All peptide inhibitors or activators were dissolved in 28% DMSO and the final concentration of DMSO with peptides or without peptides (control I/R hearts) delivered to all hearts was 0.06%. Statistical analysis was performed using ANOVA and Bonferroni-Dunn post-hoc test.
At the end of the experimental protocol, hearts were removed from the Langendorff apparatus, and frozen for 30 min at −20° C. Hearts were sectioned (2 mm) from base to apex and placed in 1% TTC for ˜10 min at 37° C. Viable tissue stained red and infarcted tissue was unstained (pale). Total tissue sections were weighed and infarcted tissue was separated from viable tissue and weighed to determine infarct size (i.e. infarct tissue weight/total tissue weight).

For the molecule `CCCCCCCCCCCCCC(=O)N[C@@H](CCC(=O)O)C(=O)N[C@@H](C)C(=O)N[C@H](C(=O)N[C@@H](CO)C(=O)N[C@@H](CC(C)C)C(=O)N[C@@H](CCCCN)C(=O)N1CCC[C@H]1C(=O)N[C@H](C(=O)O)[C@@H](C)O)C(C)C` [Myr + PKCε-, Myr-EAVSLKPT] (Myristoyl-EAVSLKPT-OH; C-terminus assumed), the “concentration for similar restoration of post-reperfused cardiac function relative to Myr+TAT+PKCε−” value in the series on isolated rat hearts amounted to 100 ×. Further, in the series with isolated rat hearts (10 μM), the “reduction of infarct size compared to control I/R hearts” value is listed as “did not reduce infarct size”, the “restoration of post-reperfused cardiac function” value is on record as “ineffective”, the “Final Coronary Flow” value turned out to be 10 ± 1 mL/min and the “Final Heart Rate” value came out at 233 ± 10 BPM. Moreover, in the series on isolated rat hearts (10 μM), the “Final LVDP” value came to 46 ± 8 mmHg, the “Final LVEDP” value turned out to be 58 ± 3 mmHg, the “Final LVESP” value worked out at 104 ± 6 mmHg and the “Final dP/dtmax” value is given as 723 ± 84 mmHg/s. In the series with isolated rat hearts (10 μM), the “Final dP/dtmin” value is listed as −694 ± 167 mmHg/s, the “Initial Coronary Flow” value amounted to 17 ± 2 mL/min, the “Initial Heart Rate” value came out at 258 ± 8 BPM and the “Initial LVDP” value was determined as 90 ± 5 mmHg. Also, in the series on isolated rat hearts (10 μM), the “Initial LVEDP” value came out at 6 ± 1 mmHg, the “Initial LVESP” value is 95 ± 5 mmHg, the “Initial dP/dtmax” value is listed as 2294 ± 108 mmHg/s and the “Initial dP/dtmin” value is −1548 ± 92 mmHg/s. For the same molecule, the “Infarct Size” value in the series with isolated rat hearts (setting [2]) came out at 15 ± 4%. For the same molecule, the solubility in “Solubility of peptide” was at most 10 mM.
On to “Myr-LSETKPAV (Myristoyl-LSETKPAV) [Myr + PKCε- Scram.]”, for which, in the series with isolated rat hearts (10 μM), the “Final Coronary Flow” value was determined as 8 ± 2 mL/min, the “Final Heart Rate” value was determined as 236 ± 11 BPM, the “Final LVDP” value is 51 ± 9 mmHg and the “Final LVEDP” value is 56 ± 8 mmHg. Besides, in the series with isolated rat hearts (10 μM), the “Final LVESP” value is listed as 107 ± 4 mmHg, the “Final dP/dtmax” value is 958 ± 265 mmHg/s, the “Final dP/dtmin” value is −727 ± 133 mmHg/s and the “Initial Coronary Flow” value worked out at 19 ± 3 mL/min. In the series on isolated rat hearts (10 μM), the “Initial Heart Rate” value is 278 ± 10 BPM, the “Initial LVDP” value is reported as 87 ± 4 mmHg, the “Initial LVEDP” value came to 9 ± 2 mmHg and the “Initial LVESP” value is on record as 96 ± 6 mmHg. In the series with isolated rat hearts (10 μM), the “Initial dP/dtmax” value is given as 2307 ± 55 mmHg/s and the “Initial dP/dtmin” value is listed as −1571 ± 72 mmHg/s. Besides, the “Infarct Size” value in the series on isolated rat hearts (setting [2]) is listed as 14 ± 3%.
In the case of “Myr-SLNPEWNET (Myristoyl-SLNPEWNET) [Myr+PKCβII−]”, in the series on isolated rat hearts (setting [3]), the Infarct Size amounted to 13±2%. Further, in series [1] (20 μM), the “reduction of PMA (100 nM) induced leukocyte superoxide release” value was 30%.
Regarding “Myr-WNPESLNTE (Myristoyl-WNPESLNTE) [Myr−PKCβII− scrambled]”, the Infarct Size in the series on isolated rat hearts (setting [3]) worked out at 22±2%. The “effect on PMA induced leukocyte superoxide release (in words)” value (“effect” below) in series [1] (20 μM) was “increased”.
On to “Myr-YGRKKRRQRRRCCLSETKPAV (Myristoyl-YGRKKRRQRRRCCLSETKPAV; cysteine pairing not given here) [Myr + TAT + PKCε- Scram.]”, for which, in the series on isolated rat hearts (1 nM), the “Final Coronary Flow” value is given as 7 ± 2 mL/min, the “Final Heart Rate” value is on record as 225 ± 1 BPM, the “Final LVDP” value worked out at 50 ± 11 mmHg and the “Final LVEDP” value was 53 ± 4 mmHg. For the same molecule, in the series on isolated rat hearts (1 nM), the “Final LVESP” value came to 103 ± 14 mmHg, the “Final dP/dtmax” value is listed as 993 ± 195 mmHg/s, the “Final dP/dtmin” value is reported as −760 ± 210 mmHg/s and the “Initial Coronary Flow” value is on record as 15 ± 1 mL/min. Moreover, in the series on isolated rat hearts (1 nM), the “Initial Heart Rate” value came out at 278 ± 10 BPM, the “Initial LVDP” value is 87 ± 1 mmHg, the “Initial LVEDP” value is listed as 6 ± 0.4 mmHg and the “Initial LVESP” value was 92 ± 1 mmHg. Further, in the series on isolated rat hearts (1 nM), the “Initial dP/dtmax” value stood at 2267 ± 87 mmHg/s and the “Initial dP/dtmin” value was −1490 ± 82 mmHg/s. In the series with isolated rat hearts (1 nM, I(30 min)/R(50 min), infarct tissue weight/total tissue weight), the “Infarct Size” value came out at 19 ± 2%. For the same molecule, in the series with isolated rat hearts (100 nM), the “Final Coronary Flow” value stood at 12 ± 4 mL/min, the “Final Heart Rate” value is 295 ± 29 BPM, the “Final LVDP” value was 36 ± 12 mmHg and the “Final LVEDP” value is 57 ± 10 mmHg. In the series with isolated rat hearts (100 nM), the “Final LVESP” value is recorded as 93 ± 9 mmHg, the “Final dP/dtmax” value was found to be 706 ± 223 mmHg/s, the “Final dP/dtmin” value is recorded as −677 ± 222 mmHg/s and the “Initial Coronary Flow” value is on record as 21 ± 6 mL/min. In the series on isolated rat hearts (100 nM), the “Initial Heart Rate” value came out at 271 ± 16 BPM, the “Initial LVDP” value amounted to 91 ± 5 mmHg, the “Initial LVEDP” value is on record as 9 ± 2 mmHg and the “Initial LVESP” value is 100 ± 4 mmHg. In addition, in the series on isolated rat hearts (100 nM), the “Initial dP/dtmax” value is recorded as 2300 ± 189 mmHg/s and the “Initial dP/dtmin” value is recorded as −1545 ± 117 mmHg/s. For the same molecule, the “Infarct Size” value with isolated rat hearts (100 nM, I(30 min)/R(50 min), infarct tissue weight/total tissue weight) turned out to be 14 ± 3%. Besides, in the series on isolated rat hearts (10 μM), the “Final Coronary Flow” value was determined as 3 ± 0.1 mL/min, the “Final Heart Rate” value worked out at 684 ± 167 BPM, the “Final LVDP” value turned out to be 3 ± 2 mmHg and the “Final LVEDP” value was 70 ± 10 mmHg. For the same molecule, in the series on isolated rat hearts (10 μM), the “Final LVESP” value amounted to 72 ± 8 mmHg, the “Final dP/dtmax” value worked out at 27 ± 9 mmHg/s, the “Final dP/dtmin” value is −24 ± 8 mmHg/s and the “Initial Coronary Flow” value is recorded as 18 ± 1 mL/min. In the series with isolated rat hearts (10 μM), the “Initial Heart Rate” value amounted to 275 ± 12 BPM, the “Initial LVDP” value turned out to be 86 ± 1 mmHg, the “Initial LVEDP” value came to 6 ± 1 mmHg and the “Initial LVESP” value was determined as 92 ± 0.3 mmHg. For the same molecule, in the series on isolated rat hearts (10 μM), the “Initial dP/dtmax” value came out at 2309 ± 69 mmHg/s and the “Initial dP/dtmin” value is reported as −1604 ± 71 mmHg/s. Moreover, the “Infarct Size” value in the series with isolated rat hearts (setting [2]) worked out at 16 ± 6%.
“Myr-YGRKKRRQRRRCCSLNPEWNET (Myristoyl-YGRKKRRQRRRCCSLNPEWNET; cysteine pairing not given here) [Myr+TAT+PKCβII−]” returned an Infarct Size in the series with isolated rat hearts (setting [3]) of 5%. In series [1] (20 μM), the “effect” value is recorded as “virtually identical to the SOD standard”, the “reduction of leukocyte superoxide release as compared to Myr+PKCβII− (20 μM)” value is recorded as around 65% and the “reduction of PMA (100 nM) induced leukocyte superoxide release” value was 80%.
“SLNPEWNET (Atificially synthesized) [PKCβII−]”: the “effect” value in series [1] (20 μM) is reported as “did not exert a significant inhibition”.
Regarding “Superoxide dismutase [SOD, reference compound]”, the “attenuation of leukocyte superoxide release” value in series [1] (10 ug/ml, positive control) was around 94%.
In the case of “YGRKKRRQRRRCCEAVSLKPT (not fully specified; cysteine pairing not given here) [TAT + PKCε-]”, in the series on isolated rat hearts (10 μM), the “reduction of infarct size compared to control I/R hearts” value is listed as “did not reduce infarct size”, the “Final Coronary Flow” value was 12 ± 4 mL/min, the “Final Heart Rate” value came out at 242 ± 18 BPM and the “Final LVDP” value came to 37 ± 12 mmHg. Moreover, in the series with isolated rat hearts (10 μM), the “Final LVEDP” value is given as 63 ± 2 mmHg, the “Final LVESP” value is 100 ± 13 mmHg, the “Final dP/dtmax” value was found to be 678 ± 223 mmHg/s and the “Final dP/dtmin” value is given as −723 ± 84 mmHg/s. For the same molecule, in the series on isolated rat hearts (10 μM), the “Initial Coronary Flow” value stood at 20 ± 2 mL/min, the “Initial Heart Rate” value is 285 ± 10 BPM, the “Initial LVDP” value was 86 ± 5 mmHg and the “Initial LVEDP” value was 7 ± 2 mmHg. Also, in the series on isolated rat hearts (10 μM), the “Initial LVESP” value is listed as 93 ± 3 mmHg, the “Initial dP/dtmax” value worked out at 2408 ± 126 mmHg/s and the “Initial dP/dtmin” value is reported as −1735 ± 149 mmHg/s. Also, the “Infarct Size” value in the series with isolated rat hearts (setting [2]) worked out at 18 ± 2%.

What is called solubility is how much of the substance goes into solution per volume. Read a high solubility as much dissolved substance.
